Experimental data from patent publication US20220289720A1, “ARYL SULFONAMIDES AS SMALL MOLECULE STAT3 INHIBITORS” (UNIVERSITY OF HAWAII, priority 2019, published 2022).

Legend:
[1] = tested on: subcutaneous MDA-MB-231 tumor xenografts; experiment: Growth of subcutaneous MDA-MB-231 tumor xenografts; type: in vivo, mouse; details: 10 mg/kg every other day, intraperitoneally, vs vehicle control
Method: (§1) (5 mice per group). The subjects were administered intraperitoneally.

MDA-MB-231 = experiment: Cell growth by trypan blue exclusion/phase-contrast microscopy; type: cell-based; details: Homo sapiens, MDA-MB-231, read-out: IC50, MDA-MB-231 cell growth
Method: FIGS. 1A-1N. Show the effects of aryl sulfonamido azetidine compounds on cell viability in vitro relative to control (untreated cells). […] Cells in 6-well plates were treated once with 0.05% DMSO, or at the indicated concentrations (0.5, 1, 2, 3, 4, 5 and 10 μM if not otherwise so indicated) of the test compounds. […] The compound names are correlated with the structures provided in the Examples in Table 1.
Cell proliferation and viability assay. […] Cells in 6-well or 96-well plates were treated with or without compounds for the indicated concentrations and time, and subjected to MTT assay or CyQuant cell proliferation assay (Invitrogen/ThermoFisher Scientific), or harvested and the viable cells were counted by trypan blue exclusion with phase-contrast microscopy.
Constitutive Stat3 activity promotes tumor cell growth and proliferation and survival (Darnell J E (2005) Nat Med. 11:595-6; Bowman T, et al., (2000) Oncogene 19:2474-2488). An aryl sulfonamido azetidine compound, H182, was tested against tumor cells harboring constitutively-active Stat3.

[2] = Body weight of treated mice in the xenograft study; type: in vivo, mouse; details: 10 mg/kg every other day, intraperitoneally, treated vs untreated mice
Method: as §1

[3] = tested on: Stat3 DNA-binding activity in MDA-MB-231 cells; experiment: EMSA of nuclear extracts from treated human breast cancer cells (intracellular Stat3 signaling); type: cell-based; details: 0.5, 1, 2, 3, 4, 5 and 10 μM, 0-72 h
Method: Nuclear extract preparation, gel shift assays, and densitometric analysis. […] The ^32P-labeled oligonucleotide probes used were hSIE (high affinity sis-inducible element from the c-fos gene, m67 variant, 5′-[…]) (SEQ ID NO: 1) that binds Stat1 and Stat3 and MGFe (mammary gland factor element from the bovine β-casein gene promoter, 5′-[…]) (SEQ ID NO: 2) for Stat1 and Stat5 binding. Except where indicated, nuclear extracts were pre-incubated with compound for 30 min at room temperature prior to incubation with the radiolabeled probe for 30 min at 30° C. before subjecting to EMSA analysis. Where appropriate, bands corresponding to Stat3:DNA complexes were scanned and quantified for each concentration of compound using ImageJ and plotted as percent of control (DMSO) against concentration of compound, from which the IC50 values were derived.
Aryl sulfonamido azetidine compounds were investigated for their inhibitory effects of the active analogs on intracellular Stat3 signaling. […] Nuclear extracts are prepared and subjected to EMSA analysis for Stat3 DNA-binding activity. […] Stat3 DNA-binding activity in MDA-MB-231 cells, is inhibited by the compounds following treatment as measured periodically up to 72 h.

Stat3 = Stat3 (Mus musculus, UniProt P42227); experiment: Stat3 DNA-binding activity in vitro, electrophoretic mobility shift assay (EMSA) on nuclear extracts; type: biochemical; details: nuclear extracts containing activated Stat3 pre-incubated with compound 30 min at room temperature, radiolabeled hSIE probe
Sequence of Stat3 (P42227 2-770): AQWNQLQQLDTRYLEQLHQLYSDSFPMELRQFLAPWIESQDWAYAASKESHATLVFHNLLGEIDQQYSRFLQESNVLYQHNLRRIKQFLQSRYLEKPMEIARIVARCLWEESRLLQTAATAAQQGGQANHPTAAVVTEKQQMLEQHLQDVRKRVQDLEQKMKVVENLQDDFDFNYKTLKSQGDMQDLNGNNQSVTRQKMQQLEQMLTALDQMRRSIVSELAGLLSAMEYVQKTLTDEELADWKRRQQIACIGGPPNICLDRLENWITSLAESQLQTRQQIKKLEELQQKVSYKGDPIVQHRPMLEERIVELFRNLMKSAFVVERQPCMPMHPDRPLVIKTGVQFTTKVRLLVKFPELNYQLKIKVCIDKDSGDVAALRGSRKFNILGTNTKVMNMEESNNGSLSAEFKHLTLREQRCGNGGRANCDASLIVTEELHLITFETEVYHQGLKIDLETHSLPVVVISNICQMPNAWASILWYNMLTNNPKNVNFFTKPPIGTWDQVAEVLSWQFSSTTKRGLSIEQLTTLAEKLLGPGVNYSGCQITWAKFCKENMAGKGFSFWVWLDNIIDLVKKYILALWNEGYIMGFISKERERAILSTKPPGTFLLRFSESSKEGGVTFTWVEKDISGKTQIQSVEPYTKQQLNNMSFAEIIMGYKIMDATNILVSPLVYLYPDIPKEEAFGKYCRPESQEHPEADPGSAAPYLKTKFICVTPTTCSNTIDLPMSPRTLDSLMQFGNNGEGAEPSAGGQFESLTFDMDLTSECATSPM
Method: FIGS. 3A-3D. show the effect of aryl sulfonamido compounds described herein on Stat3 DNA-binding activity in vitro. […] Positions of Stat3:DNA complexes in gel are labeled; control lanes (0) represent nuclear extracts pre-treated with 10% DMSO.
Nuclear extract preparation, gel shift assays, and densitometric analysis. […] Except where indicated, nuclear extracts were pre-incubated with compound for 30 min at room temperature prior to incubation with the radiolabeled probe for 30 min at 30° C. before subjecting to EMSA analysis. Where appropriate, bands corresponding to Stat3:DNA complexes were scanned and quantified for each concentration of compound using ImageJ and plotted as percent of control (DMSO) against concentration of compound, from which the IC50 values were derived.
The inhibitory activities of the representative analogs against in vitro Stat3 DNA-binding activity, as measured by electrophoretic mobility shift assay (EMSA) for representative compounds from the Examples above are shown in FIGS. 3A-3D and summarized in Table 1.
Table 1. Stat3 DNA-binding activity in vitro of aryl sulfonamido compounds described herein, including their corresponding referenced names (e.g., H203), as measured by electrophoretic mobility shift assay (EMSA). The inhibition metrics are presented in units of micromolar (μM).

SMILES	Stat3 DNA-binding activity in MDA-MB-231 cells [3]	IC50 (Stat3) [nM]	further results
O=C([C@H]1CCN1S(=O)(=O)c1c(F)c(F)c(F)c(F)c1F)N(Cc1ccc(C2CCCCC2)cn1)c1ccc2c(=O)[nH]cnc2c1 [Example H182]	inhibited	–	tumor growth [1]: reduce the tumor growth rate; IC50 (MDA-MB-231): < 10 µM; body weight [2]: maintaining subject body weight
Cn1cnc2cc(N(Cc3ccc(C4CCCCC4)cn3)C(=O)[C@H]3CCN3S(=O)(=O)c3c(F)c(F)c(F)c(F)c3F)ccc2c1=O [Example 23, (R)—N-((5-cyclohexylpyridin-2-yl)methyl)-N-(3-methyl-4-oxo-3,4-dihydroquinazolin-7-yl)-1-((perfluorophenyl)sulfonyl)azetidine-2-carboxamide]	–	1150 ± 40	–
O=C([C@H]1CCN1S(=O)(=O)c1c(F)c(F)c(F)c(F)c1F)N(Cc1ccc(C2CCCCC2)cn1)c1ccc2c(=O)[nH]ccc2c1 [Example 25, (R)—N-((5-cyclohexylpyridin-2-yl)methyl)-N-(1-oxo-1,2-dihydroisoquinolin-6-yl)-1-((perfluorophenyl)sulfonyl)azetidine-2-carboxamide]	–	788 ± 39	–
O=C([C@H]1CCN1S(=O)(=O)c1c(F)c(F)c(F)c(F)c1F)N(Cc1ccc(C2CCCCC2)nc1)c1ccc2c(=O)[nH]ncc2c1 [Example H172]	inhibited	–	–
Cn1ccc2cc(N(Cc3ccc(C4CCCCC4)cn3)C(=O)[C@H]3CCN3S(=O)(=O)c3c(F)c(F)c(F)c(F)c3F)ccc2c1=O [Example 22, (R)—N-((5-cyclohexylpyridin-2-yl)methyl)-N-(2-methyl-1-oxo-1,2-dihydroisoquinolin-6-yl)-1-((perfluorophenyl)sulfonyl)azetidine-2-carboxamide]	–	866 ± 85	–
